Experiments:
[1] = test system: A549 Cell line (Lung Cancer Cell line); test: MTT cell proliferation assay, A549 Cell line; type: cell-based, human; conditions: Homo sapiens, 72 h, MTT; for viability at 0.01 µM: A549, 0.01 μM; for viability at 0.1 µM: A549, 0.1 μM; for viability at 2.5 µM: A549, 2.5 μM; for viability at 5 µM: A549, 5 μM; for viability at 10 µM: A549, 10 μM
Protocol: (§1) 1. Protocol Followed for Anti Cancer Activity and Results, Cell Proliferation Assays: Cell lines used herein were purchased from NCCS (National Center for Cell Sciences) Pune, India. Invitro Activity was performed in NCL (National Chemical Laboratory) Pune. Each cell line was plated in 96-well microtiter plates (10,000 cells per well), and serial dilutions of indicated compounds were added. At the end of the incubation period (72 h at 37° C.), cell viability was determined by a tetrazolium dye, MTT (3-(4,5-dimethylthiazol-2-yl)-2,5-diphenyl tetrazolium bromide) (Promega, USA). The formazan crystals were dissolved in DMSO, and the absorbance at 600 nm was recorded using an ELISA plate reader. IC50 values were calculated using nonlinear regression and defined as the concentration needed for a 50% reduction in absorbance of treated versus untreated control cells.
By using the above procedure, the compounds of the invention were tested on A549 Cell line and the results obtained are presented below in table 4, Refer FIG. 1.

[2] = test system: MCF-7 Cell line; test: MTT cell proliferation assay, MCF-7 Cell line; type: cell-based; conditions: Homo sapiens, MCF7, 72 h, MTT; for viability at 0.01 µM: MCF-7, 0.01 μM; for viability at 0.1 µM: MCF-7, 0.1 μM; for viability at 2.5 µM: MCF-7, 2.5 μM; for viability at 5 µM: MCF-7, 5 μM; for viability at 10 µM: MCF-7, 10 μM
Protocol: as §1
Table 4 indicates anticancer activity against A549 Cell line. The Gefitinib was used as standard and % cell Viable was measured compared to control. The procedure used was MTT assay as mentioned. […] By using the above procedure, the compounds of the invention were tested on MCF-7 Cell line and the results obtained are presented below in table 5, Refer FIG. 2.

[3] = test system: HOP-62 Cell line; test: MTT cell proliferation assay, HOP-62 Cell line; type: cell-based; conditions: Homo sapiens, 72 h, MTT; for viability at 0.01 µM: HOP-62, 0.01 μM; for viability at 0.1 µM: HOP-62, 0.1 μM; for viability at 2.5 µM: HOP-62, 2.5 μM; for viability at 5 µM: HOP-62, 5 μM; for viability at 10 µM: HOP-62, 10 μM
Protocol: as §1
By using the above procedure, the compounds of the invention were tested on HOP-62 Cell line and the results obtained are presented below in table 6, Refer FIG. 3.

[4] = test system: MDA-MB-436 Cell line; test: MTT cell proliferation assay, MDA-MB-436 Cell line; type: cell-based; conditions: Homo sapiens, 72 h, MTT; for viability at 0.01 µM: MDA-MB-436, 0.01 μM; for viability at 0.1 µM: MDA-MB-436, 0.1 μM; for viability at 2.5 µM: MDA-MB-436, 2.5 μM; for viability at 5 µM: MDA-MB-436, 5 μM; for viability at 10 µM: MDA-MB-436, 10 μM
Protocol: as §1
By using the above procedure, the compounds of the invention were tested on MDA-MB-436 Cell line and the results obtained are presented below in table 7, Refer FIG. 4.

[5] = test system: U87MG Cell line (Glioblastoma cell line); test: MTT cell proliferation assay, U87MG Cell line; type: cell-based; conditions: Homo sapiens, U-87 MG, U87MG, 72 h, MTT
Protocol: as §1
By using the above procedure, the compounds of the invention were tested on U87MG Cell line (glioblastoma cell line) and the results obtained are presented below in table 8, Refer FIG. 5.

[6] = Log P (Table 3); type: physicochemical; conditions: no method given

Structure (SMILES)	viability at 0.01 µM [1] [%]	viability at 0.1 µM [1] [%]	viability at 2.5 µM [1] [%]	viability at 5 µM [1] [%]	viability at 10 µM [1] [%]	viability at 0.01 µM [2] [%]	viability at 0.1 µM [2] [%]	viability at 2.5 µM [2] [%]	viability at 5 µM [2] [%]	viability at 10 µM [2] [%]	viability at 0.01 µM [3] [%]	viability at 0.1 µM [3] [%]	viability at 2.5 µM [3] [%]	viability at 5 µM [3] [%]	viability at 10 µM [3] [%]	viability at 0.01 µM [4] [%]	viability at 0.1 µM [4] [%]	viability at 2.5 µM [4] [%]	viability at 5 µM [4] [%]	viability at 10 µM [4] [%]	further results
Nc1nc(Nc2ccc(Br)cc2F)sc1-c1nc2ccccc2[nH]1 [Molecule S4-M7, 5-(1H-benzo[d]imidazol-2-yl)-N^2-(4-bromo-2-fluorophenyl)thiazole-2,4-diamine]	97.1	90.9	81.8	71.8	62.8	100	101	101	101	101	102	101	100	100	90.9	100	99.9	101	93.8	91.8	viability at 0.01 µM [5]: 98.1%; viability at 0.1 µM [5]: 94.9%; viability at 2.5 µM [5]: 93.8%; viability at 5 µM [5]: 90.8%; viability at 10 µM [5]: 85.8%; logP [6]: 3.2; melting point: 200 to 202 °C
Nc1nc(Nc2ccc(Cl)cc2)sc1-c1nc2ccccc2[nH]1 [Molecule S4-M5, 5-(1H-benzo[d]imidazol-2-yl)-N^2-(4-chlorophenyl)thiazole-2,4-diamine]	95.8	85.6	73.9	65.9	54.9	89.8	83.6	79.9	72.9	65.9	101	92.6	88.9	82.9	75.9	99.8	99.6	99.9	99.9	98.9	viability at 0.01 µM [5]: 92.8%; viability at 0.1 µM [5]: 80.6%; viability at 2.5 µM [5]: 72.9%; viability at 5 µM [5]: 60.9%; viability at 10 µM [5]: 49.9%; logP [6]: 3.99; melting point: 210 to 212 °C
